Results as given in patent US6479435B1, “Diaryl ethers and processes for their preparation and herbicidal and desiccant compositions containing them” (ISK Americas Incorporated, priority 1997, dated 2002).

How the values were obtained:
Type in all cases: in vivo
[1] = system: lambsquarters (Chenopodium album, CHEAL); experiment: Pre-emerge greenhouse herbicide test, phytotoxicity rating; details: 14 days after application, rating scale 0-100
From the text: (§1) A standard greenhouse herbicide activity screening system was used to evaluate the herbicidal efficacy and crop safety of these test compounds. Six broadleaf weed species including redroot pigweed (Amaranthus retroflexus, AMARE), velvetleaf (Abutilon theophrasti, ABUTH), sicklepod (Cassia obtusifolia, CASOB), ivyleaf morningglory (Ipomoea hederacea, IPOHE), lambsquarters (Chenopodium album, CHEAL) and common ragweed (Ambrosia artemisiifolia L., AMBEL) were used as test species. Four grass weed species including green foxtail (Setaria viridis, SETVI), barnyardgrass (Echinochloa crusgalli, ECHCG), Johnsongrass (Sorghum halepense, SORHA), and large crabgrass (Digitaria sanguinalis, DIGSA) were also used. In addition, three crop species, field corn (Zea mays L., var. Dekalb 535, CORN), soybean (Glycine max L., var. Pella 86, SOY), and upland rice (Oryza sp., var.Tebonnet, RICE) were included.
(§2) All plants were grown in 10 cm square plastic pots which were filled with a sandy loam soil mix. For preemerge tests, seeds were planted one day prior to application of the test compounds. Immediately after application, test units of the pre-emerge applications were watered at the soil surface to incorporate the test materials. Subsequently, these test units were bottom-watered.
(§3) All test compounds were dissolved in acetone and applied to the test units in a volume of 187 l/ha. Test materials were applied at rates ranging from 125 g ai/ha to 1000 g ai/ha using a track sprayer equipped with a TJ8001E even flow flat fan spray nozzle. Plants were arranged on a shelf so that the top of the canopy (post-emerge) or top of the soil surface (pre-emerge) was 40-45 cm below the nozzle. Pressurized air was used to force the test solution through the nozzle as it was mechanically advanced (via electrically driven chain drive) over the top of all test plants/pots. This application simulates a typical commercial field herbicide application.
(§4) At 14 days after application of the test materials, phytotoxicity ratings were recorded. A rating scale of 0-100 was used as previously described in Research Methods in Weed Science, 2nd edition, B. Truelove, Ed., Southern Weed Science Society, Auburn University, Auburn, Ala., 1977. Briefly, “0” corresponds to no damage and “100” corresponds to complete death of all plants in the test unit. This scale was used both to determine efficacy against weed species and damage to crop species. Herbicide activity data for various compounds of this invention, which are shown by compound number in Tables 1-9, are shown in Tables 13 and 14.

[2] = system: sicklepod (Cassia obtusifolia, CASOB); experiment: as above; details: 14 days after application, rating scale 0-100
From the text: as §1, §2, §3, §4

[3] = system: green foxtail (Setaria viridis, SETVI); experiment: as above; details: 14 days after application, rating scale 0-100
From the text: as §1, §2, §3, §4

[4] = system: redroot pigweed (Amaranthus retroflexus, AMARE); experiment: as above; details: 14 days after application, rating scale 0-100
From the text: as §1, §2, §3, §4

[5] = system: ivyleaf morningglory (Ipomoea hederacea, IPOHE); experiment: as above; details: 14 days after application, rating scale 0-100
From the text: as §1, §2, §3, §4

[6] = system: large crabgrass (Digitaria sanguinalis, DIGSA); experiment: as above; details: 14 days after application, rating scale 0-100
From the text: as §1, §2, §3, §4

[7] = system: velvetleaf (Abutilon theophrasti, ABUTH); experiment: as above; details: 14 days after application, rating scale 0-100
From the text: as §1, §2, §3, §4

[8] = system: Johnsongrass (Sorghum halepense, SORHA); experiment: as above; details: 14 days after application, rating scale 0-100
From the text: as §1, §2, §3, §4

[9] = system: barnyardgrass (Echinochloa crusgalli, ECHCG); experiment: as above; details: 14 days after application, rating scale 0-100
From the text: as §1, §2, §3, §4

[10] = system: lambsquarters (Chenopodium album, CHEAL); experiment: Post-emerge greenhouse herbicide test, phytotoxicity rating; details: 14 days after application, scale 0-100
Outline: (§5)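 Plants at the 2-3 leaf stage, sown 8-21 days earlier, were track-sprayed post-emergence with compound in acetone plus 0.25% v/v non-ionic surfactant at 63-1000 g ai/ha (187 l/ha). Damage was rated at 14 days on a 0-100 scale (0 none, 100 all plants dead), for both crop injury and weed control.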

[11] = system: sicklepod (Cassia obtusifolia, CASOB); experiment: as above; details: 14 days after application, scale 0-100
Outline: as §5

[12] = system: green foxtail (Setaria viridis, SETVI); experiment: as above; details: 14 days after application, scale 0-100
Outline: as §5

[13] = system: redroot pigweed (Amaranthus retroflexus, AMARE); experiment: as above; details: 14 days after application, scale 0-100
Outline: as §5

[14] = system: ivyleaf morningglory (Ipomoea hederacea, IPOHE); experiment: as above; details: 14 days after application, scale 0-100
Outline: as §5

[15] = system: large crabgrass (Digitaria sanguinalis, DIGSA); experiment: as above; details: 14 days after application, scale 0-100
Outline: as §5

[16] = system: velvetleaf (Abutilon theophrasti, ABUTH); experiment: as above; details: 14 days after application, scale 0-100
Outline: as §5

[17] = system: Johnsongrass (Sorghum halepense, SORHA); experiment: as above; details: 14 days after application, scale 0-100
Outline: as §5

[18] = system: barnyardgrass (Echinochloa crusgalli, ECHCG); experiment: as above; details: 14 days after application, scale 0-100
Outline: as §5

[19] = system: soybean (Glycine max L., var. Pella 86, SOY); experiment: Post-emerge greenhouse test, crop damage rating; parameters: key to crop damage rating SOY: 0-100 scale: 0 = no damage, 100 = complete death of all plants; details: 14 days after application, scale 0-100
Outline: as §5

[20] = system: upland rice (Oryza sp., var.Tebonnet, RICE); experiment: Post-emerge greenhouse test, crop damage rating; details: 14 days after application, scale 0-100
Outline: as §5

[21] = system: field corn (Zea mays L., var. Dekalb 535, CORN); experiment: Post-emerge greenhouse test, crop damage rating; details: 14 days after application, scale 0-100
Outline: as §5

[22] = system: common ragweed (Ambrosia artemisiifolia L., AMBEL); experiment: Post-emerge greenhouse herbicide test, phytotoxicity rating; details: 14 days after application, scale 0-100
From the text: as §1
as §3, with “Test materials were applied at rates ranging from 125 g ai/ha to 1000 g ai/ha using a track sprayer equipped with a TJ8001E even flow flat fan spray nozzle.” left out
In the post-emerge test, a commercial non-ionic surfactant was also included (0.25% v/v) to enhance wetting of the leaf surfaces Qf target plants at rates ranging from 63 g ai/ha to 1000 g ai/ha. For post-emerge tests, seeds were planted 8-21 days prior to the test to allow emergence and good foliage development prior to application of the test substances. At the time of the post-emerge application, plants of all species were usually at the 2-3 leaf stage of development. Post-emerge test units were always bottom-watered.
as §4

[23] = system: soybean (Glycine max L., var. Pella 86, SOY); experiment: Pre-emerge greenhouse test, crop damage rating; parameters: key to SOY crop damage rating: 0 = no damage, 100 = complete death of all plants; details: 14 days after application, rating scale 0-100
Outline: (§6)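 Seeds sown in sandy loam one day before track-sprayer application of acetone solutions at 125–1000 g ai/ha (187 l/ha), then surface-watered to incorporate and bottom-watered. Injury scored visually at 14 days on a 0–100 scale (0 no damage, 100 complete death).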

[24] = system: upland rice (Oryza sp., var.Tebonnet, RICE); experiment: Pre-emerge greenhouse test, crop damage rating; details: 14 days after application, rating scale 0-100
Outline: as §6

[25] = system: field corn (Zea mays L., var. Dekalb 535, CORN); experiment: Pre-emerge greenhouse test, crop damage rating; details: 14 days after application, rating scale 0-100
Outline: as §6

## CCOC(=O)C(C)Oc1ccc(Oc2cc(-n3c(=O)n4n(c3=S)CCCC4)c(F)cc2Cl)c(N)c1 (centres unmarked) [Compound 8-40]
[1]; Rate 125 g al/ha
  CHEAL phytotoxicity rating: 50
[1]; Rate 250 g al/ha
  CHEAL phytotoxicity rating: 100
[2]; Rate 125 g al/ha
  CASOB phytotoxicity rating: 0
[2]; Rate 250 g al/ha
  CASOB phytotoxicity rating: 20
[3]; Rate 125 g al/ha
  SETVI phytotoxicity rating: 0
[3]; Rate 250 g al/ha
  SETVI phytotoxicity rating: 0
[4]; Rate 125 g al/ha
  AMARE phytotoxicity rating: 60
[4]; Rate 250 g al/ha
  AMARE phytotoxicity rating: 100
[5]; Rate 125 g al/ha
  IPOHE phytotoxicity rating: 0
[5]; Rate 250 g al/ha
  IPOHE phytotoxicity rating: 0
[6]; Rate 125 g al/ha
  DIGSA phytotoxicity rating: 0
[6]; Rate 250 g al/ha
  DIGSA phytotoxicity rating: 0
[7]; Rate 125 g al/ha
  ABUTH phytotoxicity rating: 50
[7]; Rate 250 g al/ha
  ABUTH phytotoxicity rating: 30
[8]; Rate 125 g al/ha
  SORHA phytotoxicity rating: 0
[8]; Rate 250 g al/ha
  SORHA phytotoxicity rating: 0
[9]; Rate 125 g al/ha
  ECHCG phytotoxicity rating: 0
[9]; Rate 250 g al/ha
  ECHCG phytotoxicity rating: 0
[10]; rate 63 g ai/ha
  phytotoxicity rating CHEAL: 60
[10]; rate 250 g ai/ha
  phytotoxicity rating CHEAL: 80
[11]; rate 63 g ai/ha
  phytotoxicity rating CASOB: 0
[11]; rate 250 g ai/ha
  phytotoxicity rating CASOB: 75
[12]; rate 63 g ai/ha
  phytotoxicity rating SETVI: 0
[12]; rate 250 g ai/ha
  phytotoxicity rating SETVI: 10
[13]; rate 63 g ai/ha
  phytotoxicity rating AMARE: 80
[13]; rate 250 g ai/ha
  phytotoxicity rating AMARE: 90
[14]; rate 63 g ai/ha
  phytotoxicity rating IPOHE: 40
[14]; rate 250 g ai/ha
  phytotoxicity rating IPOHE: 100
[15]; rate 63 g ai/ha
  phytotoxicity rating DIGSA: 0
[15]; rate 250 g ai/ha
  phytotoxicity rating DIGSA: 0
[16]; rate 63 g ai/ha
  phytotoxicity rating ABUTH: 100
[16]; rate 250 g ai/ha
  phytotoxicity rating ABUTH: 100
[17]; rate 63 g ai/ha
  phytotoxicity rating SORHA: 0
[17]; rate 250 g ai/ha
  phytotoxicity rating SORHA: 0
[18]; rate 63 g ai/ha
  phytotoxicity rating ECHCG: 0
[18]; rate 250 g ai/ha
  phytotoxicity rating ECHCG: 0
[19]; rate 63 g ai/ha
  crop damage rating SOY: 80
[19]; rate 250 g ai/ha
  crop damage rating SOY: 60
[20]; rate 63 g ai/ha
  crop damage rating RICE: 0
[20]; rate 250 g ai/ha
  crop damage rating RICE: 0
[21]; rate 63 g ai/ha
  crop damage rating CORN: 0
[21]; rate 250 g ai/ha
  crop damage rating CORN: 10
[22]; rate 63 g ai/ha
  phytotoxicity rating AMBEL: 80
[22]; rate 250 g ai/ha
  phytotoxicity rating AMBEL: 20
[23]; Rate 125 g al/ha
  SOY crop damage rating: 0
[23]; Rate 250 g al/ha
  SOY crop damage rating: 0
[24]; Rate 125 g al/ha
  RICE crop damage rating: 0
[24]; Rate 250 g al/ha
  RICE crop damage rating: 0
[25]; Rate 125 g al/ha
  CORN crop damage rating: 0
[25]; Rate 250 g al/ha
  CORN crop damage rating: 0
